US20210009542A1 (Calico Life Sciences LLC, priority 2018, published 2021)
pIC50: −log10 of the molar value. Like-named read-outs stand apart in the source and are kept apart here.

Experiments:
[1] = system: Pan T cells isolated from C57BL6 splenocytes; experiment: T cell activation assay (flow cytometry, CD25/CD69 on CD8 T cells); type: cell-based, mouse; conditions: for % CD25 within CD8+ / % CD69 within CD8+ / CD25 MFI / CD69 MFI: 30 μM compound, 2 days; for T cell activation and T cell function: with TCR stimulation
Procedure: (§1) Pan T cells were isolated from C57BL6 splenocytes using a MACS Pan T cell isolation kit II (Miltenyi Biotec, Auburn, Calif.) according to the manufacturer's instructions. Isolated T cells (200,000 cells/well in a 96 well flat-bottom plate) were cultured in RPMI 1640 supplemented with 10% FBS, […] 2-mercatoethanol, 100 U/mL penicillin, and 100 μg/mL streptomycin, and incubated with the indicated concentration of compound or DMSO in duplicates. After 1 hour, mouse T cell activator CD3/CD28 Dynabeads (ThermoFisher Scientific, Waltham, Mass.) were added at a 1:5 beads to cells ratio to stimulate the T cells for 2 or 3 days as outlined below. T cells with or without compound were incubated in the absence of T cell activator beads (media only) as control.
After 2 days of stimulation, activation status of T cells was assessed by flow cytometry. T cells were first subjected to Zombie Violet™ Fixable Viability dye (BioLegend, San Diego, Calif.) for dead cell exclusion, washed and then stained with BUV805 labeled anti-CD8, APC-R700 labeled anti-CD25 (both from BD Biosciences, San Jose, Calif.) and PE labeled anti-CD69 (BioLegend, San Diego, Calif.) antibodies. After staining, cells were fixed with 2% paraformaldehyde and acquired on a BD LSRFortessa™ X-20 flow cytometer (BD Biosciences, San Jose, Calif.) using BD FACSDiva™ software. Data was analyzed using FlowJo V10 (Flow Jo LLC, Ashland, Oreg.). Dead cells were excluded and frequencies of activated CD8 T cells was reported as the frequency of CD25+ or CD69+ cells within the CD8+ population. The expression level of CD25 and CD69 indicates the activation status of cells on a per cell basis and was evaluated by the mean fluorescence intensities (MFI) of CD25 and CD69.

[2] = target: T1, His tagged PTPN2 (TC45) protein (Homo sapiens, UniProt P17706); experiment: Mobility shift assay (MSA) for potency of PTPN2 inhibitors; type: biochemical; conditions: read-out: PTPN2 MSA IC50
T1 construct: made in house
T1 sequence (P17706 with tags, fused parts or gaps isoform P17706-2): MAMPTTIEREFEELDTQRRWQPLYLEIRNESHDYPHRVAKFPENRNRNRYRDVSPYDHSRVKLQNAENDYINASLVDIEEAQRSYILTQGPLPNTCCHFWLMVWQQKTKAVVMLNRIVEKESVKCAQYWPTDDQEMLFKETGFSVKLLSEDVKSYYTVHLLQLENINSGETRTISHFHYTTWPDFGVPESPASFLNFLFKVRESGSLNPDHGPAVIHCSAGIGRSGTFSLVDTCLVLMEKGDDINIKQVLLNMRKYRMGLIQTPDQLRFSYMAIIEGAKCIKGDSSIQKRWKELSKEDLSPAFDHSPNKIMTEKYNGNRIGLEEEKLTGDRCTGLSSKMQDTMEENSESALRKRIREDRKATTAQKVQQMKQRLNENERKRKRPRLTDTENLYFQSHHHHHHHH
How it was run: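 IC50 values were derived from % inhibition of substrate conversion, measured by microfluidic mobility shift (ex 488/em 530) after quenching. The fluorescent phosphotyrosine insulin-receptor peptide ([…]) reacted for 10 min at room temperature with 0.5 nM His-tagged TC45 PTPN2 that had been preincubated 10 min with compound (12 points, 1:3). Buffer was HEPES pH 7.5 with EGTA, EDTA, Tween 20 and DTT.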

[3] = system: Pan T cells isolated from C57BL6 splenocytes; experiment: T cell function assay (IFNγ and TNFα in supernatants, MSD V-plex); type: cell-based, mouse; conditions: 30 μM compound, 3 days, supernatant
Procedure: as §1
After 3 days of stimulation, supernatants were collected and IFNγ and TNFα in supernatants were assessed using an MSD V-plex assay (Meso Scale Discovery, Rockville, Md.).

[4] = system: B16F10 mouse melanoma cells; experiment: B16F10 IFNγ-induced cellular growth inhibition assay; type: cell-based; conditions: Mus musculus, B16-F10, 33 μM compound
How it was run: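 Live-cell imaging of confluence every 6 h over 5 days at 37 °C tracked growth of mouse B16F10 melanoma cells seeded overnight at 500/well. Semi-log compound series (final 100–0.001 μM, 0.1% DMSO) ran in both arms, ±IFNγ at 0.5 ng/mL final; inhibition taken relative to DMSO plus IFNγ when IFNγ-free DMSO wells passed 95% confluence.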

[5] = target: T2, His tagged full-length PTP1B protein (Homo sapiens, UniProt P18031); experiment: Mobility shift assay (MSA) for potency of PTP1B inhibitors; type: biochemical
T2 construct: made in house
T2 sequence (P18031 with tags, fused parts or gaps): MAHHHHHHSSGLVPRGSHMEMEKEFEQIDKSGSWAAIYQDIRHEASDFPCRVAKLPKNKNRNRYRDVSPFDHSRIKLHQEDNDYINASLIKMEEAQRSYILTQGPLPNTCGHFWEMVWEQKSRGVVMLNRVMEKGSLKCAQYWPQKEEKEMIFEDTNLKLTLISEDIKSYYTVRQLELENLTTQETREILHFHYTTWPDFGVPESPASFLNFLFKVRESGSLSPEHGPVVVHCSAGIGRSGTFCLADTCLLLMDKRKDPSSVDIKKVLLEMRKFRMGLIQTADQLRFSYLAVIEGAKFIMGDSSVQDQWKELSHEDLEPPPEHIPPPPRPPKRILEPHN
Procedure: The enzymatic assay used to determine activity is a mobility shift assay using a LabChip EZ Reader by Caliper Life Sciences. The enzymatic reaction was carried out in assay buffer (50 mM HEPES pH 7.5, 1 mM EGTA, 10 mM EDTA, 0.01% Tween® 20, and 2 mM DTT). […] The enzyme (at 0.5 nM) was incubated with compound for 10 minutes at room temperature. […] The % inhibition was then used to calculate the IC50 values.

[6] = anti-CD3/anti-CD28 Dynabeads (1:5 beads:cells)
[7] = +0.5 ng/mL IFNγ, relative to DMSO control, read-out: % B16F10 growth inhibition (+0.5 ng/mL IFNγ) @ 33 μM
[8] = no IFNγ, read-out: % B16F10 growth inhibition (no IFNγ) @ 33 μM

SMILES	pIC50 [5]	% CD25 within CD8+ [1, 6] [%]	% CD69 within CD8+ [1, 6] [%]	CD25 MFI [1, 6]	CD69 MFI [1, 6]	% CD25 within CD8+ ([1]; no TCR stimulation) [%]	% CD69 within CD8+ ([1]; no TCR stimulation) [%]	CD25 MFI ([1]; no TCR stimulation)	CD69 MFI ([1]; no TCR stimulation)	T cell activation and T cell function [1]	pIC50 [2]	IFNγ [3, 6] [ng/mL]	TNFα [3, 6] [ng/mL]	IFNγ ([3]; no TCR stimulation) [ng/mL]	TNFα ([3]; no TCR stimulation) [ng/mL]	inhibition at 33 µM [4, 7] [%]	inhibition at 33 µM [4, 8] [%]
O=C1CN(c2c(O)cc3ccc(C4=CCN(S(=O)(=O)C5CC5)C4)cc3c2F)S(=O)(=O)N1 [Compound 113, 5-{7-[1-(cyclopropanesulfonyl)-2,5-dihydro-1H-pyrrol-3-yl]-1-fluoro-3-hydroxynaphthalen-2-yl}-1λ^6,2,5-thiadiazolidine-1,1,3-trione]		44.55	73.95	1265	1891	0.49	0.24	51.7	28.8	increased both T cell activation and T cell function	> 9.00	356	208	1.2	1.5	> 90	< 25
O=C1CN(c2c(O)cc3ccc(OC(F)F)cc3c2F)S(=O)(=O)N1 [Compound 260, 5-[7-(difluoromethoxy)-1-fluoro-3-hydroxynaphthalen-2-yl]-1λ^6,2,5-thiadiazolidine-1,1,3-trione]		39.60	61.65	1085	464.5	0.29	0.17	28.3	10.2	increased both T cell activation and T cell function	8.00 to 9.00	752	207	3.8	2.1	25 to 59	< 25
O=C1CN(c2c(O)cc3ccc(OCC4CCCOC4)cc3c2F)S(=O)(=O)N1 (stereo not drawn) [Compound 271, 5-{1-fluoro-3-hydroxy-7-[(oxan-3-yl)methoxy]naphthalen-2-yl}-1λ^6,2,5-thiadiazolidine-1,1,3-trione]	< 7.00										> 9.00					60 to 90	< 25

Continued, in another order:

pIC50 [5]	SMILES	% CD25 within CD8+ [1, 6] [%]	% CD69 within CD8+ [1, 6] [%]	CD25 MFI [1, 6]	CD69 MFI [1, 6]	% CD25 within CD8+ ([1]; no TCR stimulation) [%]	% CD69 within CD8+ ([1]; no TCR stimulation) [%]	CD25 MFI ([1]; no TCR stimulation)	CD69 MFI ([1]; no TCR stimulation)	T cell activation and T cell function [1]	pIC50 [2]	IFNγ [3, 6] [ng/mL]	TNFα [3, 6] [ng/mL]	IFNγ ([3]; no TCR stimulation) [ng/mL]	TNFα ([3]; no TCR stimulation) [ng/mL]	inhibition at 33 µM [4, 7] [%]	inhibition at 33 µM [4, 8] [%]
> 9.00	O=C1CN(c2c(O)cc3ccc(OCCNS(=O)(=O)C4COC4)cc3c2F)S(=O)(=O)N1 [Compound 298, N-(2-{[8-fluoro-6-hydroxy-7-(1,1,4-trioxo-1λ^6,2,5-thiadiazolidin-2-yl)naphthalen-2-yl]oxy}ethyl)oxetane-3-sulfonamide]										> 9.00					> 90	< 25
7.00 to 8.00	O=C1CN(c2c(O)cc3ccc(NC4CCN(S(=O)(=O)C5CC5)C4)cc3c2F)S(=O)(=O)N1 (stereo not drawn) [Compound 306, 5-(7-{[1-(cyclopropanesulfonyl)pyrrolidin-3-yl]amino}-1-fluoro-3-hydroxynaphthalen-2-yl)-1λ^6,2,5-thiadiazolidine-1,1,3-trione]										8.00 to 9.00					60 to 90	< 25
8.00 to 9.00	CS(=O)(=O)N1CCC(F)(COc2ccc3cc(O)c(N4CC(=O)NS4(=O)=O)c(F)c3c2)C1 (stereo not drawn) [Compound 307, 5-(1-fluoro-7-{[3-fluoro-1-(methanesulfonyl)pyrrolidin-3-yl]methoxy}-3-hydroxynaphthalen-2-yl)-1λ^6,2,5-thiadiazolidine-1,1,3-trione]										8.00 to 9.00					25 to 59	< 25
